This is an account of results in US20100183714A1, “GASTRORESISTANT PHARMACEUTICAL DOSAGE FORM COMPRISING N-(2-(2- PHTHALIMIDOETHOXY)-ACETYL)-L-ALANYL-D-GLUTAMIC ACID (LK-423)” (priority 2004, published 2010).

This experiment has as its system ulcerative changes of the ileum, caecum and colon. In words: Antiulcerative action in vivo, DSS-induced ulcerative changes in rats. The note with it: 75 mg/kg orally. From the text: Ulcerative changes of ileum, caecum and colon in rats were developed in five days by drinking water containing 2% of sodium dextran sulphate (DSS).
DSS is the compound which after oral administration in an aqueous solution induces inflammatory and ulcerative changes in the mucosa of ileum, caecum and colon in animals.
The animals were randomly assigned to the individual groups.
From experiment day 6 onward the animals were drinking water with 1% DSS. The animals in Group A received the pure compound LK 423 in a dose of 75 mg/kg. The pure compound LK 423 was prepared as suspension in 1% gelatin (Gelatin GE0020, Scharlau) and was given orally via the tube in a volume of 1 ml.
In Group B the animals received the microcapsules comprising LK 423 in a dose of 75 mg/kg (as prepared in Example 1). The microcapsules comprising LK 423 were given orally via the tube dispersed in 1.5 to 2 ml 1% of gelatin.
At baseline the rats had body weight from 220 to 250 g. […] At baseline and on days 6 and 12 the body weight was recorded. For determination of the hematology parameters 1.5 ml blood samples were taken from the periorbital sinus at baseline and on day 5 of the experiment and from the abdominal aorta on day 12. The erythrocyte count and hemoglobin and hematocrit values were performed in the clinical laboratory of the Institute for Health Protection of Ruminants, Faculty of Veterinary Science. […] Throughout the experiment survival of the animals, diarrhea and occurrence of blood in the feces or the intensity of bleeding were also observed. On day 12 the animals were sacrificed under deep ether anesthesia and post-mortem examination was performed. Macroscopic changes in the ileum, caecum and in the colon and the intensity of bleeding were observed.
At autopsy fragments of the intestine were taken from the animals and fixed in 10% formaldehyde; paraffin tissue sections were prepared and stained with hematoxylin and eosin. Pathohistological diagnosis was then performed.
In all groups (both control groups, group A and group B) (Table 3) the tissue damage and a reaction of the surrounding tissue to the damage (level of regeneration) as well as accompanying parameters of the scope of bleeding in the mucosa, hypertrophy of the mucosa with glandular hyperplasia and the degree of epithelialization of the damage surface were assessed. The criteria were as follows:
The Scope of Acute Bleeding with Respect to the Tissue and to the Diameter of the Field of View at 40-Fold Magnification (4 mm): • No bleeding—0 • Small bleeding in the propria and submucosa, with a diameter less than half of the field of view—1 • Moderate bleeding in the propria and submucosa, with a diameter to one half of the field of view—2 • Very extensive bleeding in the propria and submucosa with a diameter greater than half of the field of view—3 • Very extensive bleeding in the propria, submucosa, around the vessels in the tunica muscularis, tunica serosa, and in the supporting tissue—4 Regressive Process—Damage with a Defense Reaction of the Tissue: • No cellular response (no reaction) or the regressive process was no longer active—0 • Moderate cellular infiltration (monocytes, granulocytes, macrophage, histocytes) with karyorrhesis and pyknosis in the mucosa and the submucosa—1 • Severe diffuse cellular infiltration (monocytes, granulocytes, macrophage, histocytes) with karyorrhesis and pyknosis in the mucosa and the submucos—2 • Cellular infiltration (monocytes, granulocytes, macrophage, histocytes) in the demarcation line around the injury—3

As to `C[C@H](NC(=O)COCCN1C(=O)c2ccccc2C1=O)C(=O)N[C@H](CCC(=O)O)C(=O)O` [LK 423, N-(2-(2-phthalimidoethoxy)-acetyl)-L-alanyl-D-glutamic acid], the “Blood in the feces” value is recorded as “+”; the Mortality was 33%; the “Percent of bleeding animals, Caecum” value was 17; the “Percent of bleeding animals, Colon” value amounted to 17. The “Percent of bleeding animals, Ileum” value turned out to be 17. Further, where the note is “decrease from baseline”, the “Difference of hematology values from day 0 to 12, Erythrocytes” value is reported as 1.25 × 10^12/l; the “Difference of hematology values from day 0 to 12, Hematocrit” value turned out to be 6.74%; the “Difference of hematology values from day 0 to 12, Hemoglobin” value came to 17.2 g/l. Moreover, the “Level of bleeding in the mucosa” value (histological score) worked out at 0.6. Further, under “histological score, day 12”, the “Cellular process in sacrificed animals, Epithelialization” value was 2.37; the “Cellular process in sacrificed animals, Hypertrophy of the mucosa” value was 2.75; the “Cellular process in sacrificed animals, Level of damage” value turned out to be 1.75; the “Cellular process in sacrificed animals, Level of regeneration” value is listed as 2.37. The “regeneration of damages of the intestinal mucosa compared with both control groups” value (pathohistology) was “more rapid regeneration”.
